Data on four molecules can be found in patent US20010034367A1, “Compositions and methods for the treatment of cystic fibrosis” (priority 1998, published 2001).

“Also recorded” adds a separate entry of the source. Where two headings read alike, the source gives them in different places.

The target in data set [1] is T1, ΔF508-CFTR (Homo sapiens, UniProt P13569, DEL508-508).
T1 construct: primary cultures of nasal polyp epithelia from CF patients (ΔF508 homozygous or heterozygous), or the CF bronchial epithelial cell line IB3-1; endogenous in cells; host or cells: primary nasal polyp epithelia from CF patients; IB3-1 CF bronchial epithelial cell line
T1 sequence (P13569 with tags, fused parts or gaps DEL508-508): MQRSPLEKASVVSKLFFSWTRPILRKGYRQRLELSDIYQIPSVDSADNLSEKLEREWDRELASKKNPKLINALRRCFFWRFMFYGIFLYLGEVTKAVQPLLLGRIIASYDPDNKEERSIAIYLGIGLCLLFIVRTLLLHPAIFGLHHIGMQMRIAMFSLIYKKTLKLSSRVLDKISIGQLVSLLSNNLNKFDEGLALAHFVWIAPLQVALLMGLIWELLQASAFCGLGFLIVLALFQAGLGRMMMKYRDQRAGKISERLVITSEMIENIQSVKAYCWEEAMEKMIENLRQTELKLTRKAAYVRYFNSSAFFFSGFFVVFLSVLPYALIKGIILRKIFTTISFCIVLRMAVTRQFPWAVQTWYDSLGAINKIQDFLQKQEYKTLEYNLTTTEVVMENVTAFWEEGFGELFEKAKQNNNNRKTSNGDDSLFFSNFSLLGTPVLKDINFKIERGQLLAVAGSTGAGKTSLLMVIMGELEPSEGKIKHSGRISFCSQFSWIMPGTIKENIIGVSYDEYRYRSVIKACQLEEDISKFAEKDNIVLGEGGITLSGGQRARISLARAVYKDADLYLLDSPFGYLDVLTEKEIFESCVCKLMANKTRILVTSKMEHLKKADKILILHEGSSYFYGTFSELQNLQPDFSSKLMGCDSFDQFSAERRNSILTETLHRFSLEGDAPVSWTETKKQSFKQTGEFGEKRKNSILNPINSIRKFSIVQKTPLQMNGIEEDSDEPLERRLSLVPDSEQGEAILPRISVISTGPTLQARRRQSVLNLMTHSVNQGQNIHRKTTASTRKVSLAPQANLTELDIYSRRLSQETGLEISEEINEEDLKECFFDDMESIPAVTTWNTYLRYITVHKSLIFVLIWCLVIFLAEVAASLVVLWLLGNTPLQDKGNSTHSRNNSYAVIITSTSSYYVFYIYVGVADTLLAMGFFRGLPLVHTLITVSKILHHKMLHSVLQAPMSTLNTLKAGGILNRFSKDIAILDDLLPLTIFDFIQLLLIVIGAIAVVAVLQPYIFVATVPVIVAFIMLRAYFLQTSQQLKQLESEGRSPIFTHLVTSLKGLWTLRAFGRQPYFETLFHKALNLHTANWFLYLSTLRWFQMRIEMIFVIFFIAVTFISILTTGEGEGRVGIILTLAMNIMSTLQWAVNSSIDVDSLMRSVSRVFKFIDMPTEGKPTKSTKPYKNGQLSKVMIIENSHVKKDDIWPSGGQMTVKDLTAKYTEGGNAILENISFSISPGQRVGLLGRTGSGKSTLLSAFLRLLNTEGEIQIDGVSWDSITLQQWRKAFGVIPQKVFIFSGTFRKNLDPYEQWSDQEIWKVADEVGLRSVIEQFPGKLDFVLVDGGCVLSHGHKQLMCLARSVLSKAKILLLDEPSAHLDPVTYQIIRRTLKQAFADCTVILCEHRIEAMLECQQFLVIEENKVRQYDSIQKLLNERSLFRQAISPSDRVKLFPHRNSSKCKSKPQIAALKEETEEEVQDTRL
The settings on record: 0.1 and 2 mM; primary nasal polyp epithelia or IB3-1 cells; up to 7 days in culture; cited from earlier work.

For data set [2] the following is noted: in vivo; cited from earlier work.
The target in data set [3] is T1, ΔF508-CFTR. Particulars: IB3-1 cells; 2.5 mM; cited from earlier work.
Data set [4] relates to ΔF508-CFTR. Particulars: cited from earlier work.
The subject of data set [5] is ΔF508-CFTR. The settings on record: CF epithelial cells; cited from earlier work.
Data set [6] relates to CFTR gene. Particulars: cited from earlier work.
In data set [7] the test system is IB3-1 cells. Particulars: respiratory epithelial cells; 1-2 mM; cited from earlier work.
Data set [8] deals with ΔF508-homozygous pancreatic acinar cell line. The settings on record: cited from earlier work.
Data set [9] concerns ΔF508-CFTR. The settings on record: up to 300 mM; cited from earlier work.
Data set [10] has as its target T1, ΔF508-CFTR. The settings on record: 1 M or 10%; cited from earlier work.
The test system of data set [11] is fetal hemoglobin. The data set can be described thus: fetal hemoglobin levels in thalassemic patients. The format is in vivo. An excerpt: Compositions administered in pulses have the surprising benefit of reducing the overall load of drug on the patient as the total amount of drug administered can be substantially less than that amount that has been therapeutically administered by conventional continuous therapy. Substantially means that there is more than an insignificant difference between the amount or concentration of a composition administered by pulsing according to the invention verses the amount or concentration administered using conventional therapy, without compromising the beneficial effect achieved to the patient. […] Typical pulsed amounts of arginine butyrate are from about 2 to about 20 g/kg/month, and preferably from about 3 to about 10 g/kg/month wherein the patient receives a total of less than about 20 kg per month, preferably less than about 15 kg per month and more preferably less than about 10 kg per month. […] Preferably, the therapeutically effective pulsed dose is less than the continuous dose, or less than one half, one third, one quarter, one fifth, one tenth or even one twentieth of the therapeutic continuous dose of the same composition or even less.

For data set [12] the following is noted: in vivo; cited from earlier work. This is another data set of the same source.

The term half-life denotes the time in which the quantity being followed falls by half.

In the case of `O=C(O)CCCc1ccccc1` [4PBA, 4-phenylbutyrate], in data set [1], the forskolin-activated chloride secretion entry is given as “restoration of forskolin-activated chloride secretion”. The clinical tolerability result in data set [2] is on record as “not well tolerated”. In addition, the “protein kinase A-activated, linear, 10 pS chloride channels at the plasma membrane” value in [3] is “appeared at the plasma membrane”. Moreover, the “CFTR immunoreactivity in immunoblot experiments” value in [4] (4PBA-treated samples) is given as “increased CFTR immunoreactivity”. For the same molecule, the “higher molecular mass forms of CFTR (immunoblot)” value in [4] (IB3-1 cells, 0.1-1 mM) is recorded as “appearance of higher molecular mass forms of CFTR”; in [4] (primary nasal epithelia, 5 mM) it was “appearance of higher molecular mass forms of CFTR”. In addition, in [5], the “amount of ΔF508-CFTR by immunocytochemistry” value is “consistent with increasing amounts of ΔF508-CFTR; also recorded: Increased CFTR immunoreactivity”. The “CFTR RNA levels” value in data set [6] is “no changes in CFTF RNA levels; also recorded: no increases in CFTR mRNA”.

Take `CCCC(=O)O` [butyrate, butyric acid]: in data set [7], the “cell health, growth rate and morphology” value was “morphologic changes in IB3-1 cells, with rounding of cells and decreased growth rate”. In addition, the cAMP-responsive chloride secretion entry in data set [8] is on record as “can induce cAMP-responsive chloride secretion”. Moreover, the “cAMP-stimulation indicative of chloride ion transport” value in data set [9] was “no increases in cAMP-stimulation was observed”.

As for `OCC(O)CO` [glycerol], the “movement of ΔF508-CFTR from the ER to the plasma membrane” value in data set [10] is “facilitate movement of ΔF508-CFTR from the ER to the plasma membrane”.

Consider arginine butyrate, for which the “effectiveness at continuous administration” value in data set [11] (about 2000 mg/kg patient weight, continuous) is “effective”. Besides, the “benefit measured by rise in fetal hemoglobin levels” value in data set [11] (about 400 to 1500 mg/kg in pulses, thalassemic patients) is “surprisingly more beneficial”. Further, in data set [12], the half-life is 15 min.
